Like-named read-outs stand apart in the source and are kept apart here.
What was measured:
CK1ε = CK1ε (Homo sapiens, UniProt P49674); assay: CK1ε kinase assay (Caliper LabChip electrophoretic separation of fluoresceinated peptide substrate and product); type: biochemical; details: 200 pM CK1ε, 50 μM ATP, 1.5 μM peptide, 22 hours at room temperature
Procedure, shortened: (§1)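 Kinase reactions ran 22 h at room temperature, were stopped with EDTA, and phosphorylated product was separated electrophoretically from unphosphorylated fluoresceinated peptide. Compounds were tested at eleven concentrations from 10 mM DMSO stocks. IC50 by non-linear regression.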

CK1δ = CK1δ (Homo sapiens, UniProt P48730); assay: CK1δ kinase assay (Caliper LabChip electrophoretic separation of fluoresceinated peptide substrate and product); type: biochemical; details: 200 pM CK1δ, 50 μM ATP, 1.5 μM peptide, 22 hours at room temperature
CK1δ, sequence (P48730 whole entry): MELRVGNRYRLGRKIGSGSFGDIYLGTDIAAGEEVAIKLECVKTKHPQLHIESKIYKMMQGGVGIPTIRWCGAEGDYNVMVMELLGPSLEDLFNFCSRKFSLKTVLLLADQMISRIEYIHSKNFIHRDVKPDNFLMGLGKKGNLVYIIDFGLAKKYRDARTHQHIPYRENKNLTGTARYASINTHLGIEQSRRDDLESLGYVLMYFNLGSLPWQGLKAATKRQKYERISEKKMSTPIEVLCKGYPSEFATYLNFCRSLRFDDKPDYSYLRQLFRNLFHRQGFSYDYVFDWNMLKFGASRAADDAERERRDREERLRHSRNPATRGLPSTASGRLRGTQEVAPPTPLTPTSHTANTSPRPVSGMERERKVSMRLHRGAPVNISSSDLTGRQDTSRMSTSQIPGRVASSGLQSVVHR
Procedure, shortened: as §1

CK1ε, sequence (P49674 whole entry): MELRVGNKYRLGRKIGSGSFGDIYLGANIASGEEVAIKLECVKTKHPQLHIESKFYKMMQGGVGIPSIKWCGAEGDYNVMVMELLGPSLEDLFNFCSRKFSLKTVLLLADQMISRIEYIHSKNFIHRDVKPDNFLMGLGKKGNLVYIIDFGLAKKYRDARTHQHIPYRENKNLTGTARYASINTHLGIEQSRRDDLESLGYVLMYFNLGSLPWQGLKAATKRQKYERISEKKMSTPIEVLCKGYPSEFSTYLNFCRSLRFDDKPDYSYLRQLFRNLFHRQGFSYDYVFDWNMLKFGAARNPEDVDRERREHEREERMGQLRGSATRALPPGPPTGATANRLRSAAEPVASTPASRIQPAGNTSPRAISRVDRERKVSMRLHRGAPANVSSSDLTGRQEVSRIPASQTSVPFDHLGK

Work on `CC(C)(C)NC(=O)N1Cc2c(C(N)=O)c(-c3ccc(F)c(Cl)c3)nn2C(C(F)(F)F)C1` (single isomer, unassigned) [Compound A127, N^5-(tert-Butyl)-2-(3-chloro-4-fluorophenyl)-7-(trifluoromethyl)-6,7-dihydropyrazolo[1,5-a]pyrazine-3,5(4H)-dicarboxamide] yielded an IC50 (CK1ε; read-out: CK1ε IC50 range) of 10 to 100 nM and an IC50 (CK1δ; read-out: CK1δ IC50 range) of 100 to 2000 nM.
In the case of `CC1(C)CC(NC(=O)N2CCn3nc(-c4ccc(F)c(Cl)c4)c(C(N)=O)c3C2)C1` [Compound 285, 2-(3-Chloro-4-fluorophenyl)-N^5-(3,3-dimethylcyclobutyl)-6,7-dihydropyrazolo[1,5-a]pyrazine-3,5(4H)-dicarboxamide], the IC50 (CK1ε; read-out: CK1ε IC50 range) is reported as 0.01 to 10 nM and the IC50 (CK1δ; read-out: CK1δ IC50 range) is reported as 0.01 to 10 nM.
In the case of `CC(C)(C)NC(=O)N1CCn2nc(-c3cnc(N4CCOCC4)nc3)c(C(N)=O)c2C1` [Compound 147, N^5-(tert-Butyl)-2-(2-morpholinopyrimidin-5-yl)-6,7-dihydropyrazolo[1,5-a] pyrazine-3,5(4H)-dicarboxamide], the IC50 (CK1ε; read-out: CK1ε IC50 range) is reported as 100 to 2000 nM and the IC50 (CK1δ; read-out: CK1δ IC50 range) is reported as 100 to 2000 nM.
`CC1CN(C(=O)NC(C)(C)C)Cc2c(C(N)=O)c(-c3ccc(Cl)c(Cl)c3)nn21` (centres unmarked) [Compound A34, N^5-(tert-Butyl)-2-(3,4-dichlorophenyl)-7-methyl-6,7-dihydropyrazolo[1,5-a]pyrazine-3,5(4H)-dicarboxamide] gave an IC50 (CK1ε; read-out: CK1ε IC50 range) of 0.01 to 10 nM and an IC50 (CK1δ; read-out: CK1δ IC50 range) of 0.01 to 10 nM.
With `C[C@]1(NC(=O)N2CCn3nc(-c4ccc(F)c(Cl)c4)c(C(N)=O)c3C2)C[C@H](F)C1` [Compound 275, 2-(3-Chloro-4-fluorophenyl)-N^5-((1r,3r)-3-fluoro-1-methylcyclobutyl)-6,7-dihydropyrazolo[1,5-a]pyrazine-3,5(4H)-dicarboxamide] the IC50 (CK1ε; read-out: CK1ε IC50 range) was 0.01 to 10 nM and the IC50 (CK1δ; read-out: CK1δ IC50 range) was 0.01 to 10 nM.
In the case of `CC12CC3(C)CC(C)(C1)CC(NC(=O)N1CCn4nc(-c5ccc(F)c(Cl)c5)c(C(N)=O)c4C1)(C2)C3` [Compound A65, 2-(3-Chloro-4-fluorophenyl)-N^5-((3s,5s,7s)-3,5,7-trimethyladamantan-1-yl)-6,7-dihydropyrazolo[1,5-a]pyrazine-3,5(4H)-dicarboxamide], the IC50 (CK1ε; read-out: CK1ε IC50 range) is reported as 0.01 to 10 nM and the IC50 (CK1δ; read-out: CK1δ IC50 range) is reported as 0.01 to 10 nM.
`CC(C)(NC(=O)N1CCn2nc(-c3ccc(F)c(Cl)c3)c(C(N)=O)c2C1)C(N)=O` [Compound 219, N^5-(1-Amino-2-methyl-1-oxopropan-2-yl)-2-(3-chloro-4-fluorophenyl)-6,7-dihydropyrazolo[1,5-a] pyrazine-3,5(4H)-dicarboxamide] showed an IC50 (CK1ε; read-out: CK1ε IC50 range) of 10 to 100 nM and an IC50 (CK1δ; read-out: CK1δ IC50 range) of 10 to 100 nM.
`Cn1cc(-c2nn3c(c2C(N)=O)CN(C(=O)NC(C)(C)C)CC3)cn1` [Compound 153, N^5-(tert-Butyl)-2-(1-methyl-1H-pyrazol-4-yl)-6,7-dihydropyrazolo[1,5-a] pyrazine-3,5(4H)-dicarboxamide] was tested, and the IC50 (CK1ε; read-out: CK1ε IC50 range) was 100 to 2000 nM and the IC50 (CK1δ; read-out: CK1δ IC50 range) was 100 to 2000 nM.
`NC(=O)c1c(-c2cccc(F)c2)nn2c1CN(C(=O)Nc1cc(F)ccc1F)CC2` [Compound 26, N^5-(2,5-Difluorophenyl)-2-(3-fluorophenyl)-6,7-dihydropyrazolo[1,5-a]pyrazine-3,5(4H)-dicarboxamide] was tested, and the IC50 (CK1ε; read-out: CK1ε IC50 range) was 10 to 100 nM and the IC50 (CK1δ; read-out: CK1δ IC50 range) was 10 to 100 nM.
For `CC(C)(C)NC(=O)N1CCn2nc(-c3cccc(OC(F)(F)F)c3)c(C(N)=O)c2C1` [Compound 138, N^5-(tert-Butyl)-2-(3-(trifluoromethoxy)phenyl)-6,7-dihydropyrazolo[1,5-a] pyrazine-3,5(4H)-dicarboxamide], the IC50 (CK1ε; read-out: CK1ε IC50 range) was 100 to 2000 nM and the IC50 (CK1δ; read-out: CK1δ IC50 range) was 100 to 2000 nM.
In the case of `NC(=O)c1c(-c2ccc(F)c(Cl)c2)nn2c1CN(C(=O)NC13CCC(F)(CC1)CC3)CC2` [Compound A54, 2-(3-Chloro-4-fluorophenyl)-N^5-(4-fluorobicyclo[2.2.2]octan-1-yl)-6,7-dihydropyrazolo[1,5-a]pyrazine-3,5(4H)-dicarboxamide], the IC50 (CK1ε; read-out: CK1ε IC50 range) is reported as 0.01 to 10 nM and the IC50 (CK1δ; read-out: CK1δ IC50 range) is reported as 0.01 to 10 nM.
Compound `CC1Cn2nc(-c3ccc(F)c(Cl)c3)c(C(N)=O)c2CN1C(=O)NC1(C)CC(F)(F)C1` (single isomer, unassigned) [Compound 344, 2-(3-Chloro-4-fluorophenyl)-N^5-(3,3-difluoro-1-methylcyclobutyl)-6-methyl-6,7-dihydropyrazolo[1,5-a]pyrazine-3,5(4H)-dicarboxamide] has an IC50 (CK1ε; read-out: CK1ε IC50 range) of 0.01 to 10 nM and an IC50 (CK1δ; read-out: CK1δ IC50 range) of 0.01 to 10 nM.
Compound `CC1(F)CC(C)(NC(=O)N2CCn3nc(-c4ccc(F)c(Cl)c4)c(C(N)=O)c3C2)C1` (centres unmarked) [Compound 307, 2-(3-Chloro-4-fluorophenyl)-N^5-(3-fluoro-1,3-dimethylcyclobutyl)-6,7-dihydropyrazolo[1,5-a]pyrazine-3,5(4H)-dicarboxamide] has an IC50 (CK1ε; read-out: CK1ε IC50 range) of 0.01 to 10 nM and an IC50 (CK1δ; read-out: CK1δ IC50 range) of 0.01 to 10 nM.
`NC(=O)c1c(-c2ccc(F)c(Cl)c2)nn2c1CN(C(=O)NC1CC(F)(F)C1)CC2` [Compound 291, 2-(3-Chloro-4-fluorophenyl)-N^5-(3,3-difluorocyclobutyl)-6,7-dihydropyrazolo[1,5-a]pyrazine-3,5(4H)-dicarboxamide] showed an IC50 (CK1ε; read-out: CK1ε) of 1.4 nM, an IC50 (CK1ε; read-out: CK1ε IC50 range) of 0.01 to 10 nM and an IC50 (CK1δ; read-out: CK1δ) of 0.9 nM. For the same compound, the IC50 (CK1δ; read-out: CK1δ IC50 range) was 0.01 to 10 nM.
With `CC(C)(C)NC(=O)N1CCn2nc(-c3cc4ccccc4nc3Cl)c(C(N)=O)c2C1` [Compound 140, N^5-(tert-Butyl)-2-(2-chloroquinolin-3-yl)-6,7-dihydropyrazolo[1,5-a] pyrazine-3,5(4H)-dicarboxamide] the IC50 (CK1ε; read-out: CK1ε IC50 range) was 100 to 2000 nM and the IC50 (CK1δ; read-out: CK1δ IC50 range) was 100 to 2000 nM.
Compound `NC(=O)c1c(-c2cccc(Cl)c2)nn2c1CN(C(=O)N[C@@H]1CC[C@@H]1C(F)F)CC2` [Compound 239, 2-(3-Chlorophenyl)-N^5-((1R,2S)-2-(difluoromethyl)cyclobutyl)-6,7-dihydropyrazolo[1,5-a] pyrazine-3,5(4H)-dicarboxamide] has an IC50 (CK1ε; read-out: CK1ε IC50 range) of 0.01 to 10 nM and an IC50 (CK1δ; read-out: CK1δ IC50 range) of 0.01 to 10 nM.
Work on `NC(=O)c1c(-c2cccc(Cl)c2)nn2c1CN(C(=O)NC1CC(F)(F)C1)CC2CF` (single isomer, unassigned) [Compound A112, 2-(3-Chlorophenyl)-N^5-(3,3-difluorocyclobutyl)-7-(fluoromethyl)-6,7-dihydropyrazolo[1,5-a]pyrazine-3,5(4H)-dicarboxamide] yielded an IC50 (CK1ε; read-out: CK1ε IC50 range) of 0.01 to 10 nM and an IC50 (CK1δ; read-out: CK1δ IC50 range) of 0.01 to 10 nM.
`NC(=O)c1c(-c2cccc(F)c2)nn2c1CN(C(=O)Nc1cccc3ccccc13)CC2` [Compound 52, 2-(3-Fluorophenyl)-N^5-(naphthalen-1-yl)-6,7-dihydropyrazolo[1,5-a]pyrazine-3,5(4H)-dicarboxamide] gave an IC50 (CK1ε; read-out: CK1ε IC50 range) of 10 to 100 nM and an IC50 (CK1δ; read-out: CK1δ IC50 range) of 10 to 100 nM.
For `CC12CC3CC(C)(C1)CC(NC(=O)N1CCn4nc(-c5ccc(F)c(Cl)c5)c(C(N)=O)c4C1)(C3)C2` [Compound A68, 2-(3-Chloro-4-fluorophenyl)-N^5-((1r,3R,5S,7r)-3,5-dimethyladamantan-1-yl)-6,7-dihydropyrazolo[1,5-a]pyrazine-3,5(4H)-dicarboxamide], the IC50 (CK1ε; read-out: CK1ε IC50 range) was 0.01 to 10 nM and the IC50 (CK1δ; read-out: CK1δ IC50 range) was 0.01 to 10 nM.
`NC(=O)c1c(-c2ccc(F)c(Cl)c2)nn2c1CN(C(=O)NC1CN(CC(F)(F)F)C1)CC2` [Compound 339, 2-(3-Chloro-4-fluorophenyl)-N^5-(1-(2,2,2-trifluoroethyl)azetidin-3-yl)-6,7-dihydropyrazolo[1,5-a]pyrazine-3,5(4H)-dicarboxamide] showed an IC50 (CK1ε; read-out: CK1ε IC50 range) of 0.01 to 10 nM and an IC50 (CK1δ; read-out: CK1δ IC50 range) of 0.01 to 10 nM.
With `CC(C)(NC(=O)N1CCn2nc(-c3ccc(F)c(Cl)c3)c(C(N)=O)c2C1)C(=O)NC1CC1` [Compound 213, 2-(3-Chloro-4-fluorophenyl)-N^5-(1-(cyclopropylamino)-2-methyl-1-oxopropan-2-yl)-6,7-dihydropyrazolo[1,5-a]pyrazine-3,5(4H)-dicarboxamide] the IC50 (CK1ε; read-out: CK1ε IC50 range) was 10 to 100 nM and the IC50 (CK1δ; read-out: CK1δ IC50 range) was 10 to 100 nM.
With `COCCC1CN(C(=O)NC(C)(C)C)Cc2c(C(N)=O)c(-c3ccc(F)c(Cl)c3)nn21` (single isomer, unassigned) [Compound A100, N^5-(tert-Butyl)-2-(3-chloro-4-fluorophenyl)-7-(2-methoxyethyl)-6,7-dihydropyrazolo[1,5-a]pyrazine-3,5(4H)-dicarboxamide] the IC50 (CK1ε; read-out: CK1ε IC50 range) was 0.01 to 10 nM and the IC50 (CK1δ; read-out: CK1δ IC50 range) was 10 to 100 nM.
In the case of `NC(=O)c1c(-c2cccc(Cl)c2)nn2c1CN(C(=O)NC1CC(COC(F)F)C1)CC2` (single isomer, unassigned) [Compound 244, 2-(3-Chlorophenyl)-N^5-(3-((difluoromethoxy)methyl)cyclobutyl)-6,7-dihydropyrazolo[1,5-a]pyrazine-3,5(4H)-dicarboxamide], the IC50 (CK1ε; read-out: CK1ε IC50 range) is reported as 0.01 to 10 nM and the IC50 (CK1δ; read-out: CK1δ IC50 range) is reported as 0.01 to 10 nM.
Work on `CC1CC(NC(=O)N2CCn3nc(-c4ccc(F)c(Cl)c4)c(C(N)=O)c3C2)C1` (single isomer, unassigned) [Compound 247, 2-(3-Chloro-4-fluorophenyl)-N^5-(3-methylcyclobutyl)-6,7-dihydropyrazolo[1,5-a]pyrazine-3,5(4H)-dicarboxamide] yielded an IC50 (CK1ε; read-out: CK1ε IC50 range) of 0.01 to 10 nM and an IC50 (CK1δ; read-out: CK1δ IC50 range) of 0.01 to 10 nM.
`CC(C)(C)NC(=O)N1Cc2c(C(N)=O)c(-c3ccc(F)c(Cl)c3)nn2C2(COC2)C1` [Compound A134, N^5′-(tert-Butyl)-2′-(3-chloro-4-fluorophenyl)-4′H-spiro[oxetane-3,7′-pyrazolo[1,5-a]pyrazine]-3′,5′(6′H)-dicarboxamide] showed an IC50 (CK1ε; read-out: CK1ε IC50 range) of 0.01 to 10 nM and an IC50 (CK1δ; read-out: CK1δ IC50 range) of 0.01 to 10 nM.
For `NC(=O)c1c(-c2ccc(F)c(Cl)c2)nn2c1CN(C(=O)NC1CCC(F)(F)CC1)C[C@H]2C(F)F` [Compound A13, (S)-2-(3-Chloro-4-fluorophenyl)-N^5-(4,4-difluorocyclohexyl)-7-(difluoromethyl)-6,7-dihydropyrazolo[1,5-a] pyrazine-3,5(4H)-dicarboxamide], the IC50 (CK1ε; read-out: CK1ε IC50 range) was 0.01 to 10 nM and the IC50 (CK1δ; read-out: CK1δ IC50 range) was 0.01 to 10 nM.
`NC(=O)c1c(-c2cccc(F)c2)nn2c1CN(C(=O)Nc1ccccc1C(F)(F)F)CC2` [Compound 48, 2-(3-Fluorophenyl)-N^5-(2-(trifluoromethyl)phenyl)-6,7-dihydropyrazolo[1,5-a]pyrazine-3,5(4H)-dicarboxamide] showed an IC50 (CK1ε; read-out: CK1ε IC50 range) of 100 to 2000 nM and an IC50 (CK1δ; read-out: CK1δ IC50 range) of 10 to 100 nM.

From US9273058B2 (BRISTOL-MYERS SQUIBB COMPANY, priority 2013, dated 2016)
